In patent US12208088B2 (Genentech, Inc., priority 2018, dated 2025):
pKi: −log10 of the molar value.

Biological target: HPK1 (Homo sapiens (Human), UniProt Q92918)
Experiment: HPK1 Lantha binding assay ("Lanth")
Details: binding assays; Morrison Ki fit
Method: Example B2: HPK1 Lantha Binding Assay (“Lanth”)
Procedure: I. Compound Dilution:
The compounds to be tested were diluted by preparing 12.5 uL/well of 5 mM compound (100×) in columns 2 and 13 and 10 ul/well of DMSO in columns 3-12, 14-23, and wells A1-H1 and I24-P24 of the compound plate using a Bravo liquid handling platform. For the reference compound, the top concentration was 1 mM. To the plate was added 10 ul 2 mM staurosporine in wells J1-P1 and A24-H24. A 11 point 5-fold compound serial dilution was performed using the Bravo liquid handling platform. From the plate were transferred 2.5 ul of the solutions from column 2 and column 13 to the 10 ul of DMSO in columns 3 and 14 & so on. The compound plate was centrifuged at 2500 rpm for 1 min. From the compound plate was transferred 80 nl of the compounds into an assay plate using the Echo liquid handler system. One compound plate makes two assay plates. Each assay plate is sealed and stored in an N2 cabinet.
The following assay concentrations and times were used: 2 nM HPK1, 2 nM Eu-Anti-GST Ab, and 15 nM Tracer222, with 60 min incubation time.
III. HPK Lantha Binding Assay:
For the binding assay, 4 ul 2×HPK1 and Eu-anti-GST antibody were added to each well of the assay plate using a Multidrop reagent dispenser. The solutions were incubated in a 23 C incubator for 1 h. To each well of the assay plate was added 4 ul 2× Tracer-222 using a Multidrop reagent dispenser. The solutions were again incubated in a 23 C incubator for 1 h. The results of the assay were read using an Envision plate reader with the following parameters: TR_FRET, 340 ex/615 and 665em; 100 usec Delay; and 200 usec integration.
Compound Ki was analyzed using Morrison ki fit model in XL-fit • a. fit=(1−((((E+x)+(Ki*(1+(S/Kd))))−(((((E+x)+(Ki*(1+(S/Kd))))^2)−((4*E)*x))^0.5))/(2*E))) • res=(y−fit) • b. Parameters: • E=enzyme concentration • S=Tracer222 concentration, Kd=Tracer222 Kd • All measurements reported using the same units (uM)
Exemplary compounds were tested in the binding assays.

Chain of HPK1 (Q92918 1-346 limits assumed): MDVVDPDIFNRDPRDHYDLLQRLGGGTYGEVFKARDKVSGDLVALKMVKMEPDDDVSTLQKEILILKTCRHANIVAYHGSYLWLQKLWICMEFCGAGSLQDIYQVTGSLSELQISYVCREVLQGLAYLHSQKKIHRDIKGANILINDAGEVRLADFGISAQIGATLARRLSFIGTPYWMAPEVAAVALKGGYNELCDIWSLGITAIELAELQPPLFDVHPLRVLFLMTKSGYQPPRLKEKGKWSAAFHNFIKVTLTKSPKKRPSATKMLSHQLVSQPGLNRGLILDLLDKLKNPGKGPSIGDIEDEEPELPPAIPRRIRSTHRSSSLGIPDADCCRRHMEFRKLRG

SMILES	pKi
CN(C)C(=O)c1c(N)ccc(-c2cnc3c(c2Cl)[C@]2(CC[C@H](n4cccn4)C2)CN3)c1F (relative stereo) [Compound 126a, 6-Amino-3-((1R,3S)-4′-chloro-3-(1H-pyrazol-1-yl)-1′,2′-dihydrospiro[cyclopentane-1,3′-pyrrolo[2,3-b]pyridin]-5′-yl)-2-fluoro-N,N-dimethylbenzamide]	7.73
CN(C)C(=O)c1c(N)ccc(-c2cnc3c(c2Cl)[C@]2(CC[C@H](CN)C2)CN3)c1F (relative stereo) [Compound 127a, 6-Amino-3-((1R,3S)-3-(aminomethyl)-4′-chloro-1′,2′-dihydrospiro[cyclopentane-1,3′-pyrrolo[2,3-b]pyridin]-5′-yl)-2-fluoro-N,N-dimethylbenzamide]	6.78
CN(C)C(=O)c1c(N)ccc(-c2cnc3c(c2Cl)[C@]2(CC[C@](C)(C(N)=O)C2)CN3)c1F (relative stereo) [Compound 132a, (1R,3S)-5′-(4-Amino-3-(dimethylcarbamoyl)-2-fluorophenyl)-4′-chloro-3-methyl-1′,2′-dihydrospiro[cyclopentane-1,3′-pyrrolo[2,3-b]pyridine]-3-carboxamide]	8.68
CN(C)C(=O)c1c(N)ccc(-c2cnc3c(c2Cl)[C@]2(CC[C@H](n4ccc(N)n4)C2)CN3)c1F (relative stereo) [Compound 133a, 6-Amino-3-((1R,3S)-3-(3-amino-1H-pyrazol-1-yl)-4′-chloro-1′,2′-dihydrospiro[cyclopentane-1,3′-pyrrolo[2,3-b]pyridin]-5′-yl)-2-fluoro-N,N-dimethylbenzamide]	7.47
CN(C)C(=O)c1c(N)ccc(-c2cnc3c(c2Cl)[C@]2(CC[C@H](n4nccc4N)C2)CN3)c1F (relative stereo) [Compound 134a, 6-Amino-3-((1R,3S)-3-(5-amino-1H-pyrazol-1-yl)-4′-chloro-1′,2′-dihydrospiro[cyclopentane-1,3′-pyrrolo[2,3-b]pyridin]-5′-yl)-2-fluoro-N,N-dimethylbenzamide]	7.79
CN(C)C(=O)c1c(N)ccc(-c2cnc3c(c2Cl)[C@]2(CC[C@H](CC(N)=O)C2)CN3)c1F (relative stereo) [Compound 135a, 6-Amino-3-((1R,3S)-3-(2-amino-2-oxoethyl)-4′-chloro-1′,2′-dihydrospiro[cyclopentane-1,3′-pyrrolo[2,3-b]pyridin]-5′-yl)-2-fluoro-N,N-dimethylbenzamide]	8.15
CC[C@H]1C[C@@]12CNc1ncc(-c3ccc(N)c(C(=O)N(C)C)c3F)c(Cl)c12 (relative stereo) [Compound 150a, 6-Amino-3-((1R,2S)-4′-chloro-2-ethyl-1′,2′-dihydrospiro[cyclopropane-1,3′-pyrrolo[2,3-b]pyridin]-5′-yl)-2-fluoro-N,N-dimethylbenzamide]	8.48
CC[C@@H]1C[C@@]12CNc1ncc(-c3ccc(N)c(C(=O)N(C)C)c3F)c(Cl)c12 (relative stereo) [Compound 150c, 6-Amino-3-((1R,2R)-4′-chloro-2-ethyl-1′,2′-dihydrospiro[cyclopropane-1,3′-pyrrolo[2,3-b]pyridin]-5′-yl)-2-fluoro-N,N-dimethylbenzamide]	8.60
CN(C)C(=O)c1c(N)ccc(-c2cnc3c(c2Cl)[C@]2(CC[C@@](C)(C#N)C2)CN3)c1F (relative stereo) [Compound 151a, 6-Amino-3-((1R,3R)-4′-chloro-3-cyano-3-methyl-1′,2′-dihydrospiro[cyclopentane-1,3′-pyrrolo[2,3-b]pyridin]-5′-yl)-2-fluoro-N,N-dimethylbenzamide]	7.38
CC[C@]1(C#N)CC[C@@]2(CNc3ncc(-c4ccc(N)c(C(=O)N(C)C)c4F)c(Cl)c32)C1 (relative stereo) [Compound 152a, 6-Amino-3-((1R,3S)-4′-chloro-3-cyano-3-ethyl-1′,2′-dihydrospiro[cyclopentane-1,3′-pyrrolo[2,3-b]pyridin]-5′-yl)-2-fluoro-N,N-dimethylbenzamide]	8.36
CC[C@]1(C(N)=O)CC[C@@]2(CNc3ncc(-c4ccc(N)c(C(=O)N(C)C)c4F)c(Cl)c32)C1 (relative stereo) [Compound 153a, (1R,3S)-5′-(4-Amino-3-(dimethylcarbamoyl)-2-fluorophenyl)-4′-chloro-3-ethyl-1′,2′-dihydrospiro[cyclopentane-1,3′-pyrrolo[2,3-b]pyridine]-3-carboxamide]	8.15
Cc1noc([C@@]2(C)CC[C@@]3(CNc4ncc(-c5ccc(N)c(C(=O)N(C)C)c5F)c(Cl)c43)C2)n1 (relative stereo) [Compound 156a, 6-Amino-3-((1R,3S)-4′-chloro-3-methyl-3-(3-methyl-1,2,4-oxadiazol-5-yl)-1′,2′-dihydrospiro[cyclopentane-1,3′-pyrrolo[2,3-b]pyridin]-5′-yl)-2-fluoro-N,N-dimethylbenzamide]	8.58
Cc1nc(N)nn1[C@H]1CC[C@@]2(CNc3ncc(-c4ccc(N)c(C(=O)N(C)C)c4F)c(Cl)c32)C1 (relative stereo) [Compound 157a, 6-Amino-3-((1R,3S)-3-(3-amino-5-methyl-1H-1,2,4-triazol-1-yl)-4′-chloro-1′,2′-dihydrospiro[cyclopentane-1,3′-pyrrolo[2,3-b]pyridin]-5′-yl)-2-fluoro-N,N-dimethylbenzamide]	6.96
Cc1nc(N)n([C@H]2CC[C@@]3(CNc4ncc(-c5ccc(N)c(C(=O)N(C)C)c5F)c(Cl)c43)C2)n1 (relative stereo) [Compound 158a, 6-Amino-3-((1R,3S)-3-(5-amino-3-methyl-1H-1,2,4-triazol-1-yl)-4′-chloro-1′,2′-dihydrospiro[cyclopentane-1,3′-pyrrolo[2,3-b]pyridin]-5′-yl)-2-fluoro-N,N-dimethylbenzamide]	6.88
Cc1ccn([C@H]2CC[C@@]3(CNc4ncc(-c5ccc(N)c(C(=O)N(C)C)c5F)c(Cl)c43)C2)n1 (relative stereo) [Compound 159a, 6-Amino-3-((1R,3S)-4′-chloro-3-(3-methyl-1H-pyrazol-1-yl)-1′,2′-dihydrospiro[cyclopentane-1,3′-pyrrolo[2,3-b]pyridin]-5′-yl)-2-fluoro-N,N-dimethylbenzamide]	7.49
Cc1cc(C#N)n([C@H]2CC[C@@]3(CNc4ncc(-c5ccc(N)c(C(=O)N(C)C)c5F)c(Cl)c43)C2)n1 (relative stereo) [Compound 161a]	7.29
Cc1cc(C)n([C@H]2CC[C@@]3(CNc4ncc(-c5ccc(N)c(C(=O)N(C)C)c5F)c(Cl)c43)C2)n1 (relative stereo) [Compound 163a, 6-Amino-3-((1R,3S)-4′-chloro-3-(3,5-dimethyl-1H-pyrazol-1-yl)-1′,2′-dihydrospiro[cyclopentane-1,3′-pyrrolo[2,3-b]pyridin]-5′-yl)-2-fluoro-N,N-dimethylbenzamide]	7.16
CN(C)C(=O)c1c(N)ccc(-c2cnc3c(c2Cl)[C@]2(CC[C@H](n4cc(C(F)(F)F)cn4)C2)CN3)c1F (relative stereo) [Compound 164a, 6-Amino-3-((1R,3S)-4′-chloro-3-(4-(trifluoromethyl)-1H-pyrazol-1-yl)-1′,2′-dihydrospiro[cyclopentane-1,3′-pyrrolo[2,3-b]pyridin]-5′-yl)-2-fluoro-N,N-dimethylbenzamide]	8.18
COc1c(-c2ccc(N)c(C(=O)N(C)C)c2F)cnc2c1[C@@]1(CN2)C[C@@H]1C (relative stereo) [Compound 165a, 6-Amino-2-fluoro-3-((1R,2S)-4′-methoxy-2-methyl-1′,2′-dihydrospiro[cyclopropane-1,3′-pyrrolo[2,3-b]pyridin]-5′-yl)-N,N-dimethylbenzamide]	8.19
Cc1nccn1[C@H]1CC[C@@]2(CNc3ncc(-c4ccc(N)c(C(=O)N(C)C)c4F)c(Cl)c32)C1 (relative stereo) [Compound 167a, 6-Amino-3-((1R,3S)-4′-chloro-3-(2-methyl-1H-imidazol-1-yl)-1′,2′-dihydrospiro[cyclopentane-1,3′-pyrrolo[2,3-b]pyridin]-5′-yl)-2-fluoro-N,N-dimethylbenzamide]	6.79
CCc1cnn([C@H]2CC[C@@]3(CNc4ncc(-c5ccc(N)c(C(=O)N(C)C)c5F)c(Cl)c43)C2)c1 (relative stereo) [Compound 170a, 6-Amino-3-((1R,3S)-4′-chloro-3-(4-ethyl-1H-pyrazol-1-yl)-1′,2′-dihydrospiro[cyclopentane-1,3′-pyrrolo[2,3-b]pyridin]-5′-yl)-2-fluoro-N,N-dimethylbenzamide]	8.26
CN(C)C(=O)c1c(N)ccc(-c2cnc3c(c2Cl)[C@]2(CC[C@H](n4cc(Cl)cn4)C2)CN3)c1F (relative stereo) [Compound 171a, 6-Amino-3-((1R,3S)-4′-chloro-3-(4-chloro-1H-pyrazol-1-yl)-1′,2′-dihydrospiro[cyclopentane-1,3′-pyrrolo[2,3-b]pyridin]-5′-yl)-2-fluoro-N,N-dimethylbenzamide]	8.18
